Numbers after ± are expanded uncertainties.
Key:
[1] = Ring tensiometer
[2] = xn = mol fraction of the nth substance listed; conditions: Ring tensiometer

Q: With `C[S+](C)[O-]` [dimethyl sulfoxide] as the compound, how does the surface tension liquid-gas ([1]; 298.15 K) read?
A: 42.43 ± 0.74 mN/m

Q: What about the surface tension liquid-gas ([1]; 308.15 K) of the same compound?
A: 41.3 ± 0.73 mN/m

Q: And the surface tension liquid-gas ([1]; 318.15 K)?
A: 40.17 ± 0.71 mN/m

Q: And the surface tension liquid-gas ([1]; 328.15 K)?
A: 39.08 ± 0.69 mN/m

Q: What does the source list for `C[S+](C)[O-]` [dimethyl sulfoxide] + CC(C)O?
A: surface tension liquid-gas ([2]; 298.15 K, x2 = 0): 42.43 ± 0.74 mN/m; surface tension liquid-gas ([2]; 298.15 K, x2 = 0.044): 39.17 ± 0.71 mN/m; surface tension liquid-gas ([2]; 298.15 K, x2 = 0.085): 36.42 ± 0.66 mN/m; surface tension liquid-gas ([2]; 298.15 K, x2 = 0.157): 33.83 ± 0.62 mN/m; surface tension liquid-gas ([2]; 298.15 K, x2 = 0.245): 30.89 ± 0.57 mN/m; surface tension liquid-gas ([2]; 298.15 K, x2 = 0.338): 28.56 ± 0.54 mN/m; surface tension liquid-gas ([2]; 298.15 K, x2 = 0.441): 26.67 ± 0.51 mN/m; surface tension liquid-gas ([2]; 298.15 K, x2 = 0.537): 25.15 ± 0.49 mN/m; surface tension liquid-gas ([2]; 298.15 K, x2 = 0.619): 24.19 ± 0.47 mN/m; surface tension liquid-gas ([2]; 298.15 K, x2 = 0.676): 23.19 ± 0.46 mN/m; surface tension liquid-gas ([2]; 298.15 K, x2 = 0.719): 23.03 ± 0.46 mN/m; surface tension liquid-gas ([2]; 298.15 K, x2 = 0.751): 22.84 ± 0.45 mN/m; surface tension liquid-gas ([2]; 298.15 K, x2 = 0.86): 22 ± 0.44 mN/m; surface tension liquid-gas ([2]; 308.15 K, x2 = 0): 41.3 ± 0.73 mN/m; surface tension liquid-gas ([2]; 308.15 K, x2 = 0.044): 38.58 ± 0.7 mN/m; surface tension liquid-gas ([2]; 308.15 K, x2 = 0.085): 35.88 ± 0.65 mN/m; surface tension liquid-gas ([2]; 308.15 K, x2 = 0.157): 32.83 ± 0.6 mN/m; surface tension liquid-gas ([2]; 308.15 K, x2 = 0.245): 30.21 ± 0.56 mN/m; surface tension liquid-gas ([2]; 308.15 K, x2 = 0.338): 27.7 ± 0.53 mN/m; surface tension liquid-gas ([2]; 308.15 K, x2 = 0.441): 25.88 ± 0.5 mN/m; surface tension liquid-gas ([2]; 308.15 K, x2 = 0.537): 24.46 ± 0.48 mN/m; surface tension liquid-gas ([2]; 308.15 K, x2 = 0.619): 23.39 ± 0.46 mN/m; surface tension liquid-gas ([2]; 308.15 K, x2 = 0.676): 22.84 ± 0.45 mN/m; surface tension liquid-gas ([2]; 308.15 K, x2 = 0.719): 22.48 ± 0.45 mN/m; surface tension liquid-gas ([2]; 308.15 K, x2 = 0.751): 22.21 ± 0.44 mN/m; surface tension liquid-gas ([2]; 308.15 K, x2 = 0.86): 21.21 ± 0.43 mN/m; surface tension liquid-gas ([2]; 318.15 K, x2 = 0): 40.17 ± 0.71 mN/m; surface tension liquid-gas ([2]; 318.15 K, x2 = 0.044): 37.9 ± 0.69 mN/m; surface tension liquid-gas ([2]; 318.15 K, x2 = 0.085): 34.99 ± 0.64 mN/m; surface tension liquid-gas ([2]; 318.15 K, x2 = 0.157): 32.05 ± 0.59 mN/m; surface tension liquid-gas ([2]; 318.15 K, x2 = 0.245): 29.55 ± 0.55 mN/m; surface tension liquid-gas ([2]; 318.15 K, x2 = 0.338): 27.02 ± 0.52 mN/m; surface tension liquid-gas ([2]; 318.15 K, x2 = 0.441): 25.19 ± 0.49 mN/m; surface tension liquid-gas ([2]; 318.15 K, x2 = 0.537): 23.87 ± 0.47 mN/m; surface tension liquid-gas ([2]; 318.15 K, x2 = 0.619): 22.81 ± 0.45 mN/m; surface tension liquid-gas ([2]; 318.15 K, x2 = 0.676): 22.06 ± 0.44 mN/m; surface tension liquid-gas ([2]; 318.15 K, x2 = 0.719): 21.67 ± 0.43 mN/m; surface tension liquid-gas ([2]; 318.15 K, x2 = 0.751): 21.43 ± 0.43 mN/m; surface tension liquid-gas ([2]; 318.15 K, x2 = 0.86): 20.51 ± 0.42 mN/m; surface tension liquid-gas ([2]; 328.15 K, x2 = 0): 39.08 ± 0.69 mN/m; surface tension liquid-gas ([2]; 328.15 K, x2 = 0.044): 36.91 ± 0.67 mN/m; surface tension liquid-gas ([2]; 328.15 K, x2 = 0.085): 34.12 ± 0.63 mN/m; surface tension liquid-gas ([2]; 328.15 K, x2 = 0.157): 31.15 ± 0.58 mN/m; surface tension liquid-gas ([2]; 328.15 K, x2 = 0.245): 28.39 ± 0.54 mN/m; surface tension liquid-gas ([2]; 328.15 K, x2 = 0.338): 26 ± 0.5 mN/m; surface tension liquid-gas ([2]; 328.15 K, x2 = 0.441): 24.1 ± 0.47 mN/m; surface tension liquid-gas ([2]; 328.15 K, x2 = 0.537): 22.79 ± 0.45 mN/m; surface tension liquid-gas ([2]; 328.15 K, x2 = 0.619): 21.74 ± 0.44 mN/m; surface tension liquid-gas ([2]; 328.15 K, x2 = 0.676): 21.08 ± 0.43 mN/m; surface tension liquid-gas ([2]; 328.15 K, x2 = 0.719): 20.72 ± 0.42 mN/m; surface tension liquid-gas ([2]; 328.15 K, x2 = 0.751): 20.45 ± 0.42 mN/m; surface tension liquid-gas ([2]; 328.15 K, x2 = 0.86): 19.59 ± 0.4 mN/m

Q: For `C[S+](C)[O-]` [dimethyl sulfoxide] + CCO, which surface tension liquid-gas ([2]; 298.15 K, x2 = 0) is on record?
A: 42.43 ± 0.74 mN/m

Q: And the surface tension liquid-gas ([2]; 298.15 K, x2 = 0.087)?
A: 39.25 ± 0.7 mN/m

Q: What about the surface tension liquid-gas ([2]; 298.15 K, x2 = 0.174) of the same compound?
A: 36.69 ± 0.66 mN/m

Q: And the surface tension liquid-gas ([2]; 298.15 K, x2 = 0.261)?
A: 34.4 ± 0.62 mN/m

Q: What about the surface tension liquid-gas ([2]; 298.15 K, x2 = 0.348) of the same compound?
A: 32.29 ± 0.59 mN/m

Q: And the surface tension liquid-gas ([2]; 298.15 K, x2 = 0.435)?
A: 30.48 ± 0.56 mN/m

Q: What about the surface tension liquid-gas ([2]; 298.15 K, x2 = 0.522) of the same compound?
A: 28.84 ± 0.54 mN/m

Q: And the surface tension liquid-gas ([2]; 298.15 K, x2 = 0.609)?
A: 27.34 ± 0.51 mN/m

Q: And the surface tension liquid-gas ([2]; 298.15 K, x2 = 0.696)?
A: 26.04 ± 0.49 mN/m

Q: And the surface tension liquid-gas ([2]; 298.15 K, x2 = 0.783)?
A: 24.63 ± 0.47 mN/m

Q: What about the surface tension liquid-gas ([2]; 298.15 K, x2 = 0.87) of the same compound?
A: 23.4 ± 0.45 mN/m

Q: And the surface tension liquid-gas ([2]; 308.15 K, x2 = 0)?
A: 41.3 ± 0.73 mN/m

Q: And the surface tension liquid-gas ([2]; 308.15 K, x2 = 0.087)?
A: 38.32 ± 0.68 mN/m

Q: What about the surface tension liquid-gas ([2]; 308.15 K, x2 = 0.174) of the same compound?
A: 35.75 ± 0.64 mN/m

Q: What about the surface tension liquid-gas ([2]; 308.15 K, x2 = 0.261) of the same compound?
A: 33.6 ± 0.61 mN/m

Q: What about the surface tension liquid-gas ([2]; 308.15 K, x2 = 0.348) of the same compound?
A: 31.5 ± 0.58 mN/m

Q: And the surface tension liquid-gas ([2]; 308.15 K, x2 = 0.435)?
A: 29.71 ± 0.55 mN/m

Q: What about the surface tension liquid-gas ([2]; 308.15 K, x2 = 0.522) of the same compound?
A: 28.08 ± 0.53 mN/m

Q: What about the surface tension liquid-gas ([2]; 308.15 K, x2 = 0.609) of the same compound?
A: 26.58 ± 0.5 mN/m

Q: What about the surface tension liquid-gas ([2]; 308.15 K, x2 = 0.696) of the same compound?
A: 25.22 ± 0.48 mN/m

Q: And the surface tension liquid-gas ([2]; 308.15 K, x2 = 0.783)?
A: 23.91 ± 0.46 mN/m

Q: And the surface tension liquid-gas ([2]; 308.15 K, x2 = 0.87)?
A: 22.7 ± 0.44 mN/m

Q: What about the surface tension liquid-gas ([2]; 318.15 K, x2 = 0) of the same compound?
A: 40.17 ± 0.71 mN/m

Q: What about the surface tension liquid-gas ([2]; 318.15 K, x2 = 0.087) of the same compound?
A: 37.35 ± 0.67 mN/m

Q: And the surface tension liquid-gas ([2]; 318.15 K, x2 = 0.174)?
A: 34.88 ± 0.63 mN/m

Q: What about the surface tension liquid-gas ([2]; 318.15 K, x2 = 0.261) of the same compound?
A: 32.69 ± 0.6 mN/m

Q: What about the surface tension liquid-gas ([2]; 318.15 K, x2 = 0.348) of the same compound?
A: 30.73 ± 0.57 mN/m

Q: What about the surface tension liquid-gas ([2]; 318.15 K, x2 = 0.435) of the same compound?
A: 28.95 ± 0.54 mN/m

Q: What about the surface tension liquid-gas ([2]; 318.15 K, x2 = 0.522) of the same compound?
A: 27.33 ± 0.51 mN/m

Q: And the surface tension liquid-gas ([2]; 318.15 K, x2 = 0.609)?
A: 25.83 ± 0.49 mN/m

Q: And the surface tension liquid-gas ([2]; 318.15 K, x2 = 0.696)?
A: 24.44 ± 0.47 mN/m

Q: What about the surface tension liquid-gas ([2]; 318.15 K, x2 = 0.783) of the same compound?
A: 23.14 ± 0.45 mN/m

Q: And the surface tension liquid-gas ([2]; 318.15 K, x2 = 0.87)?
A: 21.91 ± 0.43 mN/m

Q: And the surface tension liquid-gas ([2]; 328.15 K, x2 = 0)?
A: 39.08 ± 0.69 mN/m

Q: And the surface tension liquid-gas ([2]; 328.15 K, x2 = 0.087)?
A: 36.37 ± 0.65 mN/m

Q: What about the surface tension liquid-gas ([2]; 328.15 K, x2 = 0.174) of the same compound?
A: 33.99 ± 0.62 mN/m

Q: What about the surface tension liquid-gas ([2]; 328.15 K, x2 = 0.261) of the same compound?
A: 31.87 ± 0.58 mN/m

Q: And the surface tension liquid-gas ([2]; 328.15 K, x2 = 0.348)?
A: 29.99 ± 0.56 mN/m

Q: And the surface tension liquid-gas ([2]; 328.15 K, x2 = 0.435)?
A: 28.22 ± 0.53 mN/m

Q: And the surface tension liquid-gas ([2]; 328.15 K, x2 = 0.522)?
A: 26.61 ± 0.5 mN/m

Q: And the surface tension liquid-gas ([2]; 328.15 K, x2 = 0.609)?
A: 25.21 ± 0.48 mN/m

Q: What about the surface tension liquid-gas ([2]; 328.15 K, x2 = 0.696) of the same compound?
A: 23.64 ± 0.46 mN/m

Q: What about the surface tension liquid-gas ([2]; 328.15 K, x2 = 0.783) of the same compound?
A: 22.36 ± 0.44 mN/m

Q: And the surface tension liquid-gas ([2]; 328.15 K, x2 = 0.87)?
A: 21.07 ± 0.42 mN/m

— the NIST ThermoML archive (doi:10.1016/j.jct.2016.06.004)
